From ChEMBL document CHEMBL1148648, “Novel 1,3-disubstituted 8-(1-benzyl-1H-pyrazol-4-yl) xanthines: high affinity and selective A2B adenosine receptor antagonists” (J Med Chem, 2006)

Assays:
Adenosine receptor A2b = biological target: T1, Adenosine receptor A2b (Homo sapiens, UniProt P29275); assay: Displacement of [3H]ZM241385 from human adenosine A2b receptor expressed in HEK cells; assay type: cell-based, HEK293
T1 sequence (P29275 whole entry): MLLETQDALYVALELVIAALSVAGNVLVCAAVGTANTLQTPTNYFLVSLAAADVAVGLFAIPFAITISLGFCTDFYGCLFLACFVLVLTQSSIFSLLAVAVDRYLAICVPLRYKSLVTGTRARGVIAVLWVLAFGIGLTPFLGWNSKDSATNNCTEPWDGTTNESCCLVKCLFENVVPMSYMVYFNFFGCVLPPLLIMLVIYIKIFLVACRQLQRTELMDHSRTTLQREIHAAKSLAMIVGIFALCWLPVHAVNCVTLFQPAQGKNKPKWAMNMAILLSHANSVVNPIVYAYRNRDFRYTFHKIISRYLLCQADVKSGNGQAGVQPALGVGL

Adenosine receptor A2a = Adenosine receptor A2a (Homo sapiens, UniProt P29274); assay: Displacement of [3H]ZM-241385 from human adenosine A2a receptor expressed in HEK cells; assay type: cell-based, HEK293
Adenosine receptor A1 = biological target: T2, Adenosine receptor A1 (Homo sapiens, UniProt P30542); assay: Displacement of [3H]CPX from human adenosine A1 receptor expressed in CHO cells
T2 sequence (P30542 whole entry): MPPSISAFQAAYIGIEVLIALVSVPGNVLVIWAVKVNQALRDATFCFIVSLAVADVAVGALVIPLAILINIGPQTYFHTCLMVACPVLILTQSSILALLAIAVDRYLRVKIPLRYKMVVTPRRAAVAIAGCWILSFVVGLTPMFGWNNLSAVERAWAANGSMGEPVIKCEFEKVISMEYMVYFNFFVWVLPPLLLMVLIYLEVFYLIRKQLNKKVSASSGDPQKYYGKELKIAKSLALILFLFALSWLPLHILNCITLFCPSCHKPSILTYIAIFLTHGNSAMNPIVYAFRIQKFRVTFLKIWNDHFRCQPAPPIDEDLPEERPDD

Sequence of Adenosine receptor A2a (P29274 whole entry): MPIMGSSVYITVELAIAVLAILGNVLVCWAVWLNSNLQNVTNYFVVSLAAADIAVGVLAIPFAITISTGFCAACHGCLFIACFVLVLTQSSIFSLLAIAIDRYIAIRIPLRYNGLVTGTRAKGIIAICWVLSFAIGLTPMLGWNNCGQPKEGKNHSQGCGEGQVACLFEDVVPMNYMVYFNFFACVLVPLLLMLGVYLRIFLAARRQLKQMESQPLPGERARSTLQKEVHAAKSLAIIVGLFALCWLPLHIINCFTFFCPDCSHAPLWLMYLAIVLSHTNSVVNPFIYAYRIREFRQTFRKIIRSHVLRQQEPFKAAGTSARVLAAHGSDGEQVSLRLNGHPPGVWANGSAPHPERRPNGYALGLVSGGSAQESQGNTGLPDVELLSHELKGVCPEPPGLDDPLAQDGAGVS

Row | SMILES | Ki (Adenosine receptor A2b) [µM] | Ki (Adenosine receptor A2a) [µM] | Ki (Adenosine receptor A1) [µM]
1 | CC(C)Cn1c(=O)c2[nH]c(-c3cnn(Cc4cccc(F)c4)c3)nc2n(CC(C)C)c1=O | 0.99 | 1.3 | 0.83
2 | CCCn1c(=O)c2[nH]c(-c3cnn(Cc4ccccc4F)c3)nc2n(CCC)c1=O | 0.028 | 0.06 | 0.019
3 | CCn1c(=O)c2[nH]c(-c3cnn(Cc4ccccc4)c3)nc2n(CC)c1=O | 0.019 | 0.12 | 0.58
4 | CCCn1c(=O)c2[nH]c(-c3cnn(Cc4cccc(C)c4)c3)nc2n(CCC)c1=O | 0.036 | 0.066 | 0.048
5 | CCCn1c(=O)c2[nH]c(-c3cnn(Cc4cc(F)ccc4Cl)c3)nc2n(CCC)c1=O | 4.8 | – | –
6 | CCCn1c(=O)c2[nH]c(-c3cnn(Cc4ccc(OC)cc4)c3)nc2n(CCC)c1=O | 0.037 | 0.061 | 0.07
7 | CCCn1c(=O)c2nc(-c3cnn(-c4ccccc4)c3C)[nH]c2n(CCC)c1=O | > 4.1 | – | –
8 | CCCn1c(=O)c2[nH]c(-c3cnn(-c4ccc(Cl)cc4)c3C(F)(F)F)nc2n(CCC)c1=O | > 6.6 | – | –
9 | CCCn1c(=O)[nH]c(=O)c2[nH]cnc21 [ENPROFYLLINE] | – | – | 42
10 | CCCn1c(=O)c2nc(-c3cc(C)nn3CC)[nH]c2n(CCC)c1=O | 2.1 | – | –
11 | CCCn1c(=O)c2[nH]c(-c3cnn(Cc4ccc(F)cc4)c3)nc2n(CCC)c1=O | 0.022 | 0.12 | 0.023
12 | CCCn1c(=O)c2[nH]c(-c3cnn(Cc4cc(Cl)ccc4Cl)c3)nc2n(CCC)c1=O | 0.029 | 0.07 | 0.19
13 | CCCn1c(=O)c2[nH]c(-c3cnn(Cc4ccccc4C)c3)nc2n(CCC)c1=O | 0.033 | 0.051 | 0.022
14 | CCCn1c(=O)c2[nH]c(-c3cnn(Cc4cc(C(F)(F)F)cc(C(F)(F)F)c4)c3)nc2n(CCC)c1=O | 0.35 | – | –
15 | CCCn1c(=O)c2[nH]c(-c3cnn(Cc4ccccc4C(F)(F)F)c3)nc2n(CCC)c1=O | 0.037 | 0.23 | 0.044
16 | CCCn1c(=O)c2[nH]c(-c3cnn(Cc4ccccc4OC)c3)nc2n(CCC)c1=O | 0.037 | 0.14 | 0.059
17 | CCCn1c(=O)c2nc(-c3cnn(Cc4ccc(OC)c(C(F)(F)F)c4)c3)[nH]c2n(CCC)c1=O | 0.41 | – | –

Row | SMILES | Ki (Adenosine receptor A2b) [µM] | Ki (Adenosine receptor A2a) [µM] | Ki (Adenosine receptor A1) [µM]
18 | CCCn1c(=O)c2[nH]c(-c3cnn(Cc4ccc(F)c(C(F)(F)F)c4)c3)nc2n(CCC)c1=O | 0.64 | – | –
19 | CCCn1c(=O)c2nc(-c3cnn(-c4ccccc4)c3C(F)(F)F)[nH]c2n(CCC)c1=O | > 6.6 | – | –
20 | CCCCn1c(=O)c2[nH]c(-c3cnn(Cc4ccccc4)c3)nc2n(CCCC)c1=O | 0.98 | 0.89 | 1.4
21 | CCCn1c(=O)c2nc(-n3cccn3)[nH]c2n(CCC)c1=O | > 5.8 | – | –
22 | CCCn1c(=O)c2[nH]c(-c3cnn(-c4ccccc4)c3)nc2n(CCC)c1=O | 0.31 | 0.56 | 0.77
23 | CCCn1c(=O)c2[nH]c(-c3cc(C)nn3C)nc2n(CCC)c1=O | 3.7 | – | –
24 | CCCn1c(=O)c2nc(-c3cnn(Cc4c(F)cc(F)cc4F)c3)[nH]c2n(CCC)c1=O | 0.65 | – | –
25 | CCCn1c(=O)c2nc(-c3ccnn3-c3ccccc3)[nH]c2n(CCC)c1=O | 1.1 | – | –
26 | CCCc1c(-c2nc3c([nH]2)c(=O)n(CCC)c(=O)n3CCC)cnn1-c1ccccc1 | > 6.6 | – | –
27 | CCCn1c(=O)c2[nH]c(-c3cnn(Cc4cc(C(F)(F)F)cc(Cl)c4F)c3)nc2n(CCC)c1=O | 0.36 | – | –
28 | CCCn1c(=O)c2nc(-c3cnn(Cc4ccc(F)cc4F)c3)[nH]c2n(CCC)c1=O | 0.7 | – | –
29 | CCCn1c(=O)c2nc(-c3cnn(Cc4ccc(Cl)c(C(F)(F)F)c4)c3)[nH]c2n(CCC)c1=O | 0.2 | – | –
30 | CCCn1c(=O)c2c(nc(-n3cccn3)n2Cc2ccccc2)n(CCC)c1=O | > 5.8 | – | –
31 | CCCn1c(=O)c2c(nc(-n3cc(I)cn3)n2Cc2ccccc2)n(CCC)c1=O | > 5.8 | – | –
32 | CCCn1c(=O)c2nc(-c3cnn(Cc4c(F)cccc4F)c3)[nH]c2n(CCC)c1=O | 0.39 | – | –
33 | CCCn1c(=O)c2[nH]c(-c3cnn(Cc4cccc(F)c4F)c3)nc2n(CCC)c1=O | 0.24 | – | –
